Like-named read-outs stand apart in the source and are kept apart here. Residues, ends and D or L forms follow the SMILES beside them. *: point of attachment. AMC = Cc1cc(=O)oc2cc(N*)ccc12; Boc = CC(C)(C)OC(=O)*
Assays:
[1] = target: T1, matriptase (Homo sapiens, UniProt Q9Y5Y6); test: Km determination of fluorogenic substrate with matriptase; format: biochemical
T1 construct: Charles Craik, UCSF (obtained from another laboratory)
T1 sequence (Q9Y5Y6 615-855 limits assumed): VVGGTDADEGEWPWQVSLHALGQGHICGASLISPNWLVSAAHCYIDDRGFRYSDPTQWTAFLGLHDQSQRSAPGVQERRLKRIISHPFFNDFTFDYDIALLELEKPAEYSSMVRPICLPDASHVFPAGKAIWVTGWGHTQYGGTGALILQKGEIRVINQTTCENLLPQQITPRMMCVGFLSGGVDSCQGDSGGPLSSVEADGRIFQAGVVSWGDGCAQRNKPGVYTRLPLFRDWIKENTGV
Method: (§1) In black 384 well plates (Corning #3575), 12.5 nM HGFA was mixed with various amounts of Boc-QLR-AMC and 1 nM matriptase and 0.3 nM hepsin were mixed with various amounts of Boc-QAR-AMC. Changes in fluorescence (excitation at 380 nm and emission at 460 nn) were measured at room temperature over time in a Biotek Synergy 2 plate reader (Winnoski, Vt.). Using plots of the mean reaction velocity versus substrate concentration and the Michaelis-Menten enzyme kinetics equation within GraphPad Prism version 6.04 for Windows (GraphPad Software, San Diego, Calif., www.graphpad.com), the reaction Vmax and subsequent Km for each of the substrates were determined.

[2] = target: T2, HGFA (Homo sapiens, UniProt Q04756); test: Km determination of fluorogenic substrate with HGFA; format: biochemical
T2 construct: His6 tag (N); seven amino acid spacer and seven amino acid TEV cleavage site (N); Honey Bee melittin signal peptide (N); made in house; host or cells: High 5 insect cells (baculovirus; virus raised in Sf9)
T2 sequence (Q04756 373-655): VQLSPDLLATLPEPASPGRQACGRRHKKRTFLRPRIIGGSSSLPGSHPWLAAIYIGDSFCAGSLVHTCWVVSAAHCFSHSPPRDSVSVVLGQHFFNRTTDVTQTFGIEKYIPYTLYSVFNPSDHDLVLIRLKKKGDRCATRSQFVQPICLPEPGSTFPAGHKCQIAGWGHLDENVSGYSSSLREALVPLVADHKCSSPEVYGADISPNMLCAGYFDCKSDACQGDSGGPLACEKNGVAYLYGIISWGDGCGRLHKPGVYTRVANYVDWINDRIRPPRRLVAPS
Method: as §1

[3] = target: thrombin (Homo sapiens, UniProt P00734); test: Chromogenic kinetic enzyme assay of thrombin; format: biochemical
Method: (§2) Inhibitors (11-pt serial dilutions, 0-20 μM final concentration) were serially diluted in DMSO (2% DMSO final concentration) and then mixed with recombinant thrombin (0.15 nM final concentration) or Factor Xa (0.35 nM final concentration) in TNC buffer (25 mM Tris, 150 mM NaCl, 5 mM CaCl2, 0.01% TRITON X-100, pH 8) using clear 384 well plates. […] Changes in absorbance at 405 nm were measured over time in a Biotek Synergy 2 plate (Winnoski, Vt.). Using GraphPad Prism version 6.04 software program, (GraphPad Software, San Diego, Calif., www.graphpad.com), a four parameter curve fit was used to determine the inhibitor IC50s from a plot of the mean reaction velocity versus the inhibitor concentration. Ki values were calculated from the IC50 values using the Cheng and Prusoff equation (Ki=IC50/(1+[S]/Km).

[4] = target: T3, hepsin (Homo sapiens, UniProt P05981); test: Fluorescent kinetic enzyme inhibitor assay of hepsin; format: biochemical; conditions: Table 9.1; Fluorogenic Assay; read-out: Hepsin Ki
T3 construct: purchased R&D Systems 4776-SE-010
How it was run: (§3)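 Fluorescence (ex 380/em 460 nm) followed kinetically at room temperature; IC50 from four-parameter fit of mean velocity versus concentration, averaged over three experiments.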

[5] = target: Trypsin; test: Trypsin selectivity assay; format: biochemical
[6] = target: T2, HGFA; test: Fluorescent kinetic enzyme inhibitor assay of HGFA; format: biochemical; conditions: for Ki: Fluorogenic Assay, read-out: HGFA Ki
How it was run: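 Recombinant His-tagged HGFA residues 373-655 from insect cells, with substrate at Km. Inhibitors in 11-point dilutions, 0-20 μM final, 2% DMSO, fluorescence (ex 380/em 460 nm) followed over time at room temperature. IC50 from four-parameter fit of mean velocity, average of three experiments.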

[7] = target: T1, matriptase; test: Fluorescent kinetic enzyme inhibitor assay of matriptase; format: biochemical; conditions: Fluorogenic Assay
How it was run: as §3

[8] = target: Factor Xa (Homo sapiens, UniProt P00742); test: Chromogenic kinetic enzyme assay of Factor Xa; format: biochemical
Method: as §2

[9] = test system: MDA-MB-231 cells; test: MRC5-mediated migration and invasion of MDA-MB-231 cells through Matrigel; format: cell-based, human; conditions: 1 μM, 24 hour
Method: MRC5 fibroblasts were plated in the bottom well of a Boyden chamber, and incubated overnight to condition the attractant media. The following day, MDA-MB-231 or T47D cells+/−inhibitors were plated above on Matrigel coated inserts (8.0 μm membrane inserts, 12-well; Corning 3422) and incubated in FBS media overnight. Inhibitors were added to fresh media and then cells were plated above on the inserts. The cells were fixed and stained at the 24 hour time point. The inserts were then removed and mounted on glass plates where the number of migrated cells were imaged and counted at 4 fields per membrane using a light microscope at 20×.

[10] = target: T4, HGFA (Homo sapiens, UniProt Q04756); test: Kinetic parameters of ACC substrates (Table 11.4); format: biochemical
T4 sequence (Q04756 408-655 limits assumed): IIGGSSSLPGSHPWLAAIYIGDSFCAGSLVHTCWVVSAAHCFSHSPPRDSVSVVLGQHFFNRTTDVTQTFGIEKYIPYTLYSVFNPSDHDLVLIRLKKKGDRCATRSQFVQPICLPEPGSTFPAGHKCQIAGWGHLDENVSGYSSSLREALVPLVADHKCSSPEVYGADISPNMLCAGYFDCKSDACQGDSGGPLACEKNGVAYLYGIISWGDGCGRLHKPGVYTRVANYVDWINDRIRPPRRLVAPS
T4 sequence (Q04756 373-407 partner limits assumed): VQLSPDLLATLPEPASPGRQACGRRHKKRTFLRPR
Description: Results for MSP-MS profiling for HGFA substrate cleavage and specificity can be seen in FIG. 20 and Tables 11.1-11.4. IceLogo graphs can be seen in FIGS. 21A and 21B.

[11] = Table 6.2, headed Fluorogenic Assay
[12] = Table 6.2, headed Fluorogenic Assay, read-out: Thrombin Ki
[13] = Table 6.2, headed Fluorogenic Assay, read-out: Factor Xa Ki

Sequence of Factor Xa (P00742 235-488 limits assumed): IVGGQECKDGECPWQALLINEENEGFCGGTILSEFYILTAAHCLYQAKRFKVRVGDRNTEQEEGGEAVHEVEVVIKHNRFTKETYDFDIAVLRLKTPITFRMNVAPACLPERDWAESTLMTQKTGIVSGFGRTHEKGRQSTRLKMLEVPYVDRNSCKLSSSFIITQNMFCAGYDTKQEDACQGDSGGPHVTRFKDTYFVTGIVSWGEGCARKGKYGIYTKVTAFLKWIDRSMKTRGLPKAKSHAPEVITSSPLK
Sequence of Factor Xa (P00742 41-179 partner limits assumed): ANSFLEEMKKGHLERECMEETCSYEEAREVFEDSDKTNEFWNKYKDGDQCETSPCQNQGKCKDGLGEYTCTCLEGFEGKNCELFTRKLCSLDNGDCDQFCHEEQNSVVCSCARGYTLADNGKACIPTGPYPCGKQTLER
T3 sequence (P05981 163-417 limits assumed): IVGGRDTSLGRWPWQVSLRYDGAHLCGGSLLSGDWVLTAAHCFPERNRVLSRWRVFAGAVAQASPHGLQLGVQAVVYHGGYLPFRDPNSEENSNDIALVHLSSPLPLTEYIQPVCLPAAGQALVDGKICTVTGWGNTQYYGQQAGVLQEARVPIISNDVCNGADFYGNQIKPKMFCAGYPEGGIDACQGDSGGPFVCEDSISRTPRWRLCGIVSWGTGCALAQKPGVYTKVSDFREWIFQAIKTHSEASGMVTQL
T3 sequence (P05981 45-162 partner limits assumed): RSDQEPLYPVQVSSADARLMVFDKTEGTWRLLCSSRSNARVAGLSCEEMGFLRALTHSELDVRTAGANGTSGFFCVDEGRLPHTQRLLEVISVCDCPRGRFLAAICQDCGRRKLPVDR

| Compound | Ki [5, 11] [nM] | Ki ([6]; Table 6.1) [nM] | Ki [3, 12] [µM] | Ki [8, 13] [nM] | further results |
| --- | --- | --- | --- | --- | --- |
| Cc1cc(=O)oc2cc(NC(=O)[C@H](CCCNC(=N)N)NC(=O)[C@H](C)NC(=O)[C@H](CCC(N)=O)NC(=O)OC(C)(C)C)ccc12 [Boc-QAR-AMC] (Boc-Gln-Ala-Arg-{AMC}) | – | – | – | – | Km [1]: 93 µM |
| Cc1cc(=O)oc2cc(NC(=O)[C@H](CCCNC(=N)N)NC(=O)[C@H](CC(C)C)NC(=O)[C@H](CCC(N)=O)NC(=O)OC(C)(C)C)ccc12 [Boc-QLR-AMC] (Boc-Gln-Leu-Arg-{AMC}) | – | – | – | – | Km [2]: 37 µM |
| N=C(N)c1cccc(C[C@H](NS(=O)(=O)c2ccc3ccccc3c2)C(=O)N2CCN(C(=O)NCc3ccc(Br)cc3)CC2)c1 [Compound 25a, (S)—N-(4-Bromobenzyl)-4-(3-(3-carbamimidoylphenyl)-2-(naphthalene-2-sulfonamido)propanoyl)piperazine-1-carboxamide] | – | – | – | – | Ki ([3]; Table 9.4, read-out: Thrombin Ki): 3.11 µM; Ki [4]: 48 nM; Ki ([5]; Table 9.4): 2.2 nM; Ki ([6]; Table 9.1): 16200 nM; Ki ([7]; Table 9.1): 4200 nM; Ki ([8]; Table 9.4, read-out: Factor Xa Ki): 4560 nM |
| CC(=O)N[C@@H](CCCCN)C(=O)N[C@@H](CCC(N)=O)C(=O)N[C@@H](CC(C)C)C(=O)N[C@@H](CCCNC(=N)N)C(=O)c1nc2ccccc2s1 [Compound 7006, Ac-KQLR(SEQ ID NO: 1)-Kbt] | 0.24 | 30 | – | – | Ki [3]: > 20 µM; fold increase in HGFA potency ([6]; versus parent compound): 2 fold; Ki [8]: 129 nM |
| CC(=O)N[C@@H](CO)C(=O)N[C@@H](CCCCN)C(=O)N[C@@H](CC(C)C)C(=O)N[C@@H](CCCNC(=N)N)C(=O)c1nc2ccccc2s1 [Compound 7053, Ac-SKLR(SEQ ID NO: 10)-Kbt] | 0.16 | 33 | – | – | Ki [3]: > 20 µM; Ki [8]: 1900 nM |
| CC(=O)N[C@@H](CCCCN)C(=O)N[C@@H](CCCNC(=N)N)C(=O)N[C@@H](CC(C)C)C(=O)N[C@@H](CCCNC(=N)N)C(=O)c1nc2ccccc2s1 [Compound 7054, Ac-KRLR(SEQ ID NO: 8)-Kbt] | 0.82 | 6 | > 20 | 91.9 | MRC5-mediated migration and invasion [9]: abrogate |
| CC(=O)N[C@@H](Cc1ccccc1)C(=O)N[C@@H](CC(C)C)C(=O)N[C@@H](Cc1ccccc1)C(=O)N[C@@H](CCCNC(=N)N)C(=O)c1nc2ccccc2s1 [Compound 7063, Ac-FLFR(SEQ ID NO: 19)-Kbt] | 0.27 | 114 | > 20 | 13.1 | Ki ([7]; Table 6.1): 3.6 nM |
| CC(C)C[C@H](NC(=O)[C@H](CCCNC(=N)N)NC(=O)[C@@H](N)Cc1c[nH]c2ccccc12)C(=O)N[C@@H](CCCNC(=N)N)C(=O)c1nc2ccccc2s1 [Compound 7117, H-WRLR(SEQ ID NO: 9)-Kbt] | 0.96 | 8.75 | 4.89 | 2.4 | – |
| COC(=O)c1ccc(CNC(=O)c2ccc3nc(C(=O)[C@H](CCCNC(=N)N)NC(=O)[C@H](CC(C)C)NC(=O)[C@H](CCCNC(=N)N)NC(=O)[C@H](CCCCN)NC(C)=O)sc3c2)cc1 [Compound 7158, Ac-KRLR(SEQ ID NO: 8)-kbt-Benzyl-4-COOMe] | 0.05 | 5.85 | 0.0209 | 9 | – |
| COC(=O)c1cccc(CNC(=O)c2ccc3nc(C(=O)[C@H](CCCNC(=N)N)NC(=O)[C@H](CC(C)C)NC(=O)[C@H](CCCNC(=N)N)NC(=O)[C@H](CCCCN)NC(C)=O)sc3c2)c1 [Compound 7159, Ac-KRLR(SEQ ID NO: 8)-kbt-Benzyl-3-COOMe] | 0.04 | 7.76 | 0.0854 | 14 | – |
| N=C(N)NCCC[C@H](NC(=O)[C@H](Cc1ccccc1)NC(=O)OCC1c2ccccc2-c2ccccc21)C(=O)c1nc2ccccc2s1 [Compound 7187-14, Fmoc-FR-kbt] | 14.3 | 964 | > 2 | 28.4 | – |
| Ac-His(3Bom)-Agp-hLeu-Arg-ACC | – | – | – | – | Km [10]: 52.1 µM |
